Key:
Assay type in all cases: physicochemical
[1] = Single crystal X-ray diffraction (calculated density); conditions: from single crystal X-ray data collected at −100° C.
Protocol: Suitable single crystals for polymorph Form A were grown from methanol evaporation. A colorless irregular plate with approximate dimensions of 0.520×0.300×0.060 mm was chosen for data collection and mounted on a polymer loop. Single crystal data was collected using a Bruker Platform goniometer with an Apex-II detector. The diffractometer was equipped with an incident beam monochromator using Mo-Kα radiation (λ=0.71073 Å) and a monocap collimator. The crystals were cooled in a −100° C. nitrogen flow during data collection.
The data were indexed and integrated using the Apex-II suite of programs including Sainplus and SADABS. The monoclinic cell parameters were determined to be: a=7.870(5) Å, b=28.037(16) Å, c=7.976(5) Å, beta=103.875(10) °, volume=1708.6(17) Å^3. The space group was determined to be P21/n. The molecular weight was 412.66 g/mol giving a calculated density of 1.604 g/cm^3, and μ(Mo)=2.59 mm^−1 for Z=4. Data reduction led to 3487 unique data from a two-theta range=5.46 to 52.92°. […]
The data were indexed and integrated using the Apex-II suite of programs including Sainplus and SADABS. The orthorhombic cell parameters were determined to be: a=14.285(3) Å, b=11.464(2) Å, c=20.010(3) Å, volume=3276.9(10) Å^3. The space group was determined to be Pbca. The molecular weight was 412.66 g/mol giving a calculated density of 1.673 g/cm^3, and μ(Mo)=2.70 mm^−1 for Z=8. […]

[2] = Temperature-dependent X-ray powder diffraction (stability with respect to temperature); conditions: heated from 25° C. at 10° C. per minute; pXRD
Protocol: To assess the stability of polymorph Form B of Compound 1 with respect to temperature, X-ray powder diffraction patterns were obtained while heating a sample of Form B from 25° C. to above its melting point. The measurement was conducted at the 5-IDD beam line at the Advanced Photon Source synchrotron located at the Argonne National Laboratory (Argonne, Ill., USA). A Differential-Scanning Calorimeter (DSC, Model DSC600, Linkam Scientific Instruments, Tadworth, U.K.) was mounted in vertical orientation to allow insertion of the DSC into the X-ray beam. The DSC was positioned in the beam line to accept a 100-200 μm square beam under high vacuum. The standard quartz window was replaced with polyimide film (Kapton®, 8 μm thickness, DuPont, Wilmington, Del., USA). An internal thermocouple was installed for temperature recording. A circular charged couple device (CCD) detector (Model Mar165, 165 mm diameter, Marresearch GmbH, Norderstedt, Germany) was used to detect the X-rays scattered from the sample. The detector was equipped with an aluminum cone that covered the detector and extended 100 mm from the face of the detector. This cone was equipped with a beam stop support and 5×3 mm lead beam stop. The cone was continuously purged with helium to minimize air scattering. […]

[3] = Differential Scanning Calorimetry; conditions: DSC, heated at 2° C./min
Protocol: Differential Scanning Calorimetry was used to study the crystalline phases of various samples of Compound 1. Data were obtained with a TA Instruments Q20-1220 Differential Scanning Calorimeter (V24.2 Build 107) using a standard cell (FC-03859). Samples were prepared by weighing between 4 and 5 mg of Compound 1 in a gold plated pan (Fauske and Associates, LLC, Burr Ridge, Ill.; part number DSC-M20). The corresponding lid was crimped tightly to the pan and the assembled crucible was inserted into the calorimeter. An empty crucible of the same type was prepared the same way and inserted as the reference. After the instrument was initialized, the sample was first equilibrated at 25° C. and then heated at 2° C./min to a maximum temperature of 225° C.

| calculated density [1] [g/mL] | temperature until which the form persists before it converts to polymorph Form A [2] [°C] | broad endotherm signal maximum (transition of Form B to Form A) [3] | heat of transition ([3]; Form B to Form A) [J/g] | Compound |
| --- | --- | --- | --- | --- |
| 1.604 |  |  |  | Cc1nn(C)c(Nc2c(F)cccc2Cl)c1-c1ccc(F)cc1Br [polymorph Form A, 4-(2-bromo-4-fluorophenyl)-N-(2-chloro-6-fluorophenyl)-1,3-dimethyl-1H-pyrazol-5-amine] |
| 1.673 | 138 | about 148 °C | 12 | Cc1nn(C)c(Nc2c(F)cccc2Cl)c1-c1ccc(F)cc1Br [polymorph Form B, 4-(2-bromo-4-fluorophenyl)-N-(2-chloro-6-fluorophenyl)-1,3-dimethyl-1H-pyrazol-5-amine] |
